In patent publication US8557795B2, “Composition containing Chamaecyparis obtusa polysaccharides to be externally applied to the skin” (Amorepacific Corporation, priority 2009, dated 2013):

Tests used:
[1] = system: C57BL/6 mouse melanocytes (Mel-Ab cells); assay: Melanin production inhibitory effect using mouse melanocytes; assay type: cell-based; details: 72 h, 3 days
Description: Mouse melanocytes were used to examine the melanin production inhibitory effect of the Chamaecyparis obtusa polysaccharide of the present invention. First, C57BL/6 mouse melanocytes (Mel-Ab cells) (Dooley, T. P. et al, Skin pharmacol, 7, pp 188-200) were cultured in DMEM (Dulbeccos modified Eagles media), containing 10% fetal bovine serum, 100 nM 2-O-tetradecanoyphorbol-13-acetate and 1 nM cholera toxin, in conditions of 37° C. and 5% CO2. The cultured Mel-Ab cells were detached with 0.25% trypsin-EDTA and cultured in a 24-well culture plate at a concentration of 10^5 cells/well. Then, from 2 days of culture, each of 10 ppm, 50 ppm and 100 ppm of the Chamaecyparis obtusa polysaccharide was continuously added thereto and cultured for 3 days. Herein, arbutin was used as a positive control. Then, the media were removed, and the cells were washed with PBS and lysed with 1N sodium hydroxide. The lysed cells were measured for absorbance at 400 nm, and based on the measured absorbance, the inhibition (%) of melanin production was calculated according to the following equation 2. Inhibition (%) of melanin production=100−(absorbance of each test material/absorbance of control×100) [Equation 2]

human keratinocytes = assay: Induction of differentiation of human keratinocytes (cornified envelop amount); assay type: cell-based; details: Ca^2+ 1.2 mM (positive control); relative to 100 for low calcium (0.03 mM) control
Description: The effect of the Chamaecyparis obtusa polysaccharide of the present invention on the promotion of cell differentiation was examined by measuring the amount of CE (cornified envelop) produced during differentiation of keratinocytes and a human keratinocyte cell line (HaCaT).
Primarily cultured human keratinocytes were placed in a culture flask and allowed to adhere to the bottom of the flask, and then calcium and the Chamaecyparis obtusa polysaccharide were added to the culture media at varying concentrations. The cells were cultured for 5 days to a confluency of about 70-80%. The cultured cells were harvested and washed with PBS (phosphate buffered saline), and then 1 ml of 10 mM Tris-HCl buffer (pH 7.4), containing 2% SDS (sodium dodecyl sulfate) and 20 mM DTT (dithiothreitol), was added to the cells. The cell solution was sonicated, boiled and centrifuged, and the resulting precipitate was suspended in 1 ml of PBS and measured for absorbance at 340 nm. Meanwhile, a portion of the solution after the sonication was taken and measured for its protein content, and the measured value was used as a standard for evaluating the degree of cell differentiation. […] Each of the measurement values was calculated relative to 100 for the negative control (low calcium concentration), and the results of the calculation are shown in Table 6 below.

transglutaminase = assay: Expression of transglutaminase in human keratinocytes; assay type: cell-based; details: Ca^2+ 1.2 mM (positive control); relative to 100 for low calcium (0.03 mM) control
Description: Human skin cells were placed in a 96-well plate at a concentration of 5×10^4 cells/well and attached to the plate for 24 hours. The attached skin cells were treated with the test material, and after 2 days, the medium was removed, and the cells were stored in a refrigerator at […]. The cells were frozen and thawed twice, disrupted and treated with acetone:ethanol (1:1, v/v), stored at −20° C. The treated cells were left to stand at 4° C. for 30 minutes to immobilize the cells. Then, the cells were left to stand at room temperature to evaporate the organic solvent and were blocked with 1% bovine serum albumin. The blocked cells were treated with transglutaminase antibody (primary antibody) and HRP anti-mouse antibody (secondary antibody), and the color development of the cells was carried out by the addition of OPD (o-phenyldiamine). The expression level of transglutaminase in the cells was measured by measuring the absorbance at 490 nm, and the correction was carried out by measuring the background at 630 nm. A low calcium (0.03 mM)-treated group and a high calcium (1.2 mM)-treated group were used as a negative control group and a positive control group, respectively. Each of the measurement values was calculated relative to 100 for the negative control (low calcium concentration), and the results of the calculation are shown in Table 7 below.

type I procollagen = assay: Type I procollagen assay (ELISA) in human normal fibroblasts; assay type: cell-based; details: 10 ng/Ml; positive control set to 100
Description: Human normal fibroblasts were cultured in a 12-well culture plate at a concentration of 10^5 cells/well, and then the medium was replaced with each of media containing 1 ppm, 10 ppm and 50 ppm of the Chamaecyparis obtusa polysaccharide obtained in Preparation Example 1. As a positive control, TGF-β (Human Transforming Growth Factor-β1, Roche Co.) was used. At 3 days of culture, the cells were harvested, and the amount of type I procollagen produced in the cells was measured by an ELISA assay. Each of the measurement values was calculated relative to 0 for a control containing no Chamaecyparis obtusa polysaccharide and 100 for the positive control, and the results of the calculation are shown in Table 1 below.

human skin = assay: Whitening effect on UVB-darkened human skin (colorimeter); assay type: in vivo; details: UVB-darkened upper arm; 10 weeks of application; solvent control 0.51 ± 0.13
Description: In order to examine the whitening effect of the Chamaecyparis obtusa polysaccharide of the present invention on the human skin, the following test was carried out. First, on 12 healthy men as subjects, a 1.5-cm perforated opaque tape was attached to the upper arm portion of the subjects, and then the attached portion was radiated with UVB at a dose about 1.5-2 times the minimal erythema dose of each subject to induce skin darkening.
The color of the skin was measured with a colorimeter CR2002 (Japan, Minolta). Then, the difference (ΔL*) in skin color between the time point of initiation of application and the time point of completion of application (after 10 weeks) of each test material was calculated according to the following equation 3, and the results of the calculation are shown in Table 5 below.
Meanwhile, the skin whitening effect is evaluated by measuring the ΔL* value between the sample-applied portion and the control portion. […] Difference (ΔL*) skin color=L*value at the time of completion of application−L*value at the time of initiation of application [Formula 3]

[2] = system: TPA-induced mouse ear inflammation; assay: TPA-induced mouse ear inflammation model; assay type: in vivo, ICR mice; details: 24 hours after TPA, polysaccharide 0.5% in 80% ethanol, indomethacin 0.5 mg/ear
Description: The tetradecanoyl phorbol acetate (TPA)-induced mouse ear inflammation model is an experimental method which is widely used to test the mechanism of action of inflammatory responses and the effect of inhibitors (De Young L M et al., Agents and Actions, 26; 335-341 (1989)). In order to confirm the inflammation inhibitory effect of the Chamaecyparis obtusa polysaccharide, 8-week-old male ICR mice (8 animals per group) were prepared. The test group was treated with TPA and applied with a solution of the Chamaecyparis obtusa polysaccharide dispersed in a 80% ethanol aqueous solution, the untreated group was applied with a 80% ethanol aqueous solution alone without treatment with TPA, the negative control group was treated with TPA and applied with a 80% ethanol aqueous solution alone, and the positive control group was treated with TPA and applied with 0.5 mg of indomethacine (Sigma, USA) in place of the Chamaecyparis obtusa polysaccharide. […] The mice of the untreated group, the negative control group and the positive control group were also treated as described above. At 24 hours after application of TPA, the mice were euthanized by cervical dislocation, and the left ear was sampled in a given area, and the weight thereof was measured. […] The inhibition (%) is calculated according to the following equation 4. […]

[3] = system: MMP-1 (matrix metalloproteinase I); assay: Inhibition of UV-B-induced MMP-1 biosynthesis in human normal fibroblasts (ELISA); assay type: cell-based; details: irradiated with UV-B 40 mJ/cm^2; 10 μM; 2 days; non-irradiated control 100, UV alone 152
Description: Human normal fibroblasts were cultured in a 12-well culture plate at a concentration of 10^5 cells/well, and then irradiated with 40 mJ/cm^2 of UV-B, after which the medium was replaced with a medium containing each of 1 ppm, 10 ppm and 50 ppm of the Chamaecyparis obtusa polysaccharide obtained in Preparation Example 1. At 2 days of culture, the cells were harvested, and the amount of MMP-1 (matrix metalloproteinase I) produced in the cells was measured by an ELISA assay. As a positive control, retinoic acid (RA, Sigma, USA) was used. Each of the measurement values was calculated relative to […] for a control containing no Chamaecyparis obtusa polysaccharide and which was not irradiated with UV-B. The results of the calculation are shown in Table 2 below.

OC[C@H]1O[C@@H](Oc2ccc(O)cc2)[C@H](O)[C@@H](O)[C@@H]1O [Arbutin, arbutin]
inhibition at 100 ppm [1]: 52%

[Ca+2] [Ca^2+, calcium]
Differentiation (%) of keratinocytes (human keratinocytes): 215%
Expression (%) of transglutaminase (transglutaminase): 138%

TGF-β: Human Transforming Growth Factor-β1, Roche Co.; positive control
Type I procollagen biosynthesis (%) (type I procollagen): 100%

Oc1ccc(O)cc1 [Hydroquinone, hydroquinone]
Difference (ΔL*) in skin color (human skin): 1.89 ± 0.15

COc1ccc2c(c1)c(CC(=O)O)c(C)n2C(=O)c1ccc(Cl)cc1 [Indomethacin, indomethacine]
Inhibition (%) (mean) [2]: 92%
Ear weight (mean ± SD) ([2]; untreated 6.64 ± 0.65, TPA alone 13.21 ± 2.49): 7.20 ± 0.57

CC1=C(/C=C/C(C)=C/C=C/C(C)=C/C(=O)O)C(C)(C)CCC1 [RA, retinoic acid]
MMP-1 biosynthesis (%) [3]: 45%
